The test deals with Articular cartilage explants. The test can be described thus: IL1β-induced glycosaminoglycan (GAG) release from 35S-labelled articular cartilage explants. It is filed as cell-based, cows. The note with it: polyphenolic compounds extracted e.g. from rosemary plants; qualitative statement. An excerpt: Articular cartilage explants are dissected out of the metacarpophalangeal joint of old cows (8-10 years). The skin is removed from the feet. The articulation is opened transversally. Intra articular ligaments are transected. Full thickness slices of cartilage are dissected out and put in a Petri dish containing DMEM supplemented with 20% FBS ([…]) and antibiotics (penicillin, streptomycin and gentamycin). Under the hood, disks of cartilage obtained by using a biopsy punch (6 mm in diameter) are distributed between the wells of a 96-wells plate containing 200 μl of medium (DMEM+20% FBS, 1% penicillin/streptomycin, 0.1% gentamycin) per well. Finally, plates are put into an incubator (37° C./5% CO2).
Five days after their harvest, the explants are divided into several different treatment conditions:
1—negative control: the wells contain only culture medium. 2—positive stimulatory control: Interleukin 1β(IL1β) is added to the media at the concentration of 50 ng per ml. This cytokine is used to stimulate the catabolism and to induce inflammation. 3—positive inhibitory control: d15-PGJ2 (a peroxisome proliferator activated receptor γ agonist) and hymenialdisine are co-added, to the medium, with IL1β, to counteract the catabolic effect of this cytokine (Sabatini M, et al. (2002) Osteoarthritis Cartilage 10(9): 673-679; Scher J U, et al. (2005) Clin Immunol 114(2): 100-109; Boyault S, et al. (2001) Febs Letters 501(1): 24-30) 4, 5, 6, 7, 8 (if present)—tested compounds: these conditions test the effects of three concentrations of a polyphenol in presence of IL1β.
The explants undergo these treatments for 72 hours in the incubator (37° C., 5% CO2). The following protocol is based on the disclosure of Campbell et al. (1984) Arch Biochem Biophys 234(1): 275-289 and Hascall V C, et al. (1983) ArchBiochem Biophys 224(1): 206-223 and was carried out 48 hours after the harvest of the explants,
Sulphur 35 (35S) was added to the medium to be incorporated into newly synthesized polysulfated glycosaminoglycans within the extracellular matrix of the explants. After 72 hours, several washes were performed to eliminate the non-incorporated radioactivity. The explants were then treated for 72 hours, after which the supernatants were collected and the amount of radioactivity released in the medium was measured with a beta counter, as a marker of glycosaminoglycan (GAG) catabolism. The radioactivity present in the explants was also measured and used to normalize the amount of radioactivity released in the media. The radioactivity was expressed in DPM ([…]) and the GAG release was assessed by the following formula:
GAG release=radioactivity in the supernatants/(radioactivity in the supernatants+radioactivity in the explants)
In the case of `COc1c(O)cc2oc(-c3ccc(O)c(O)c3)cc(=O)c2c1O` [6-methoxy-luteolin], the anti-catabolic potential result is reported as “anti-catabolic potential”.

With `COc1c(OC2OC(COC(=O)C=Cc3ccc(O)cc3)C(O)C(O)C2O)cc2oc(-c3ccc(O)c(O)c3)cc(=O)c2c1O` (stereo not shown) [6″-Coumaroylnepitrin], the anti-catabolic potential entry is “anti-catabolic potential”.

On to `COc1cc(C=CC(=O)OCC2OC(Oc3cc4oc(-c5ccc(O)c(O)c5)cc(=O)c4c(O)c3OC)C(O)C(O)C2O)ccc1O` (stereo not shown) [6″-Feruloylnepitrin], for which the anti-catabolic potential entry is “anti-catabolic potential”.

On to `CC(C)c1cc2c(c(O)c1O)C13CCCC(C)(C)C1C(OC3=O)C2O` (stereo not shown) [7-epirosmannol], for which the anti-catabolic potential result is “anti-catabolic potential”. For `CC(C)c1cc2c(c(O)c1O)[C@@]13CCCC(C)(C)[C@@H]1C[C@@H]2OC3=O` [carnosol], the anti-catabolic potential entry is given as “anti-catabolic potential”.

For `COc1cc2oc(-c3ccc(O)cc3)cc(=O)c2c(O)c1OC` [cirsimaritin], the anti-catabolic potential result is reported as “anti-catabolic potential”. `O=c1c(O)c(-c2ccc(O)cc2)oc2cc(O)cc(O)c12` [kaempferol]: the anti-catabolic potential result is on record as “anti-catabolic potential”.

In the case of `O=c1cc(-c2ccc(O)c(O)c2)oc2cc(O)cc(O)c12` [luteolin], the anti-catabolic potential result is reported as “anti-catabolic potential”. Take `CC(C)c1cc2c(c(O)c1O)[C@@]13CCCC(C)(C)[C@@H]1[C@H](OC3=O)[C@H]2O` [rosmanol]: the anti-catabolic potential entry is given as “anti-catabolic potential”. Next, `O=C(/C=C/c1ccc(O)c(O)c1)O[C@H](Cc1ccc(O)c(O)c1)C(=O)O` [rosmarinic acid]: “anti-catabolic potential”.

The values are drawn from patent publication US20110160136A1, “POLYPHENOLS FOR THE TREATMENT OF CARTILAGE DISORDERS” (NESTEC S.A., priority 2008, published 2011).
